This is an account of results in patent publication US20220387398A1, “IMMUNE TO[…] AND POTENTIATORS” (priority 2019, published 2022).

In data set [1] the test system is ITE degradation in mouse plasma. Kind of data set: Inhibition of ITE degradation in mouse plasma by esterase inhibitors. It is filed as biochemical. The conditions noted are these: for inhibition of ITE degradation (in words, rank): mouse plasma, 1 millimolar benzil, BNPP and tacrine, 0.5 millimolar rivastigmine, pre-incubated 60 minutes. The source says:
Each inhibitor provided at least some protection from degradation.
FIGS. 3-7 show a mass balance analysis of ITE+ITC in the presence of each inhibitor.

For data set [2] the following is noted: mouse.
Method: Levels of ITE and ITC in mouse plasma were determined by liquid chromatography-mass spectrometry (LC-MS). Standard curves were produced by serial dilution of ITE and ITE and used to convert ion counts to absolute concentrations (FIG. 1A).
Each inhibitor was tested independently for its ability to protect ITE from degradation in 0.5 milliliters of mouse plasma (FIG. 2A).

For the compound `CCN(C)C(=O)Oc1cccc([C@H](C)N(C)C)c1` [Rivastigmine, rivastigmine], in data set [1] (0.5 mL mouse plasma, at 120 minutes, 0.5 millimolar rivastigmine pre-incubated 60 minutes), the “ITE protected from degradation” value is on record as roughly 70%. For the same compound, the “inhibition of ITE degradation (in words, rank)” value (from here on “inhibition of ITE degradation”) in data set [1] is given as “best inhibitor of ITE degradation”.

For `COC(=O)c1csc(C(=O)c2c[nH]c3ccccc23)n1` [ITE, 2-(1 H-Indol-3-ylcarbonyl)-4-thiazolecarboxylic acid methyl ester], in data set [2] (30 min), the ITE lost result is recorded as “over 60%”. Besides, the ITE degraded result in data set [2] (60 min) was “about 90%”.

For the compound `O=[N+]([O-])c1ccc(OP(=O)(O)Oc2ccc([N+](=O)[O-])cc2)cc1` [BNPP, bis-para-nitrophenylphosphate], the “inhibition of ITE degradation” value in data set [1] is given as “weaker inhibitors”.

Regarding `Nc1c2c(nc3ccccc13)CCCC2` [Tacrine, tacrine], the “inhibition of ITE degradation” value in data set [1] is on record as “weaker inhibitors”.

As to `O=C(C(=O)c1ccccc1)c1ccccc1` [Benzil, benzil], the “inhibition of ITE degradation” value in data set [1] was “weakest single inhibitor”.
